Values joined by “and” are separate entries in the source; they are usually repeats but may differ in a detail not shown here. Identical values can stand only once. “Also recorded” adds a separate entry of the source. Like-named read-outs stand apart in the source and are kept apart here.
Legend:
lymphoid leukemia L1210 [1] = details: cited from earlier work; for activity in L1210: prior testing
[2] = reported; Europe / Japan; cited from earlier work
B16 melanocarcinoma = format: in vivo, murine; details: for ILS: QD1-9, at OD, Table IX; for OD: QD1-9, Table IX
lymphoid leukemia L1210 [3] = format: in vivo, murine
Text: (§1) A third IC tumor model, the ependymoblastoma system, was also studied. This system requires intracerebral implantation of a solid tumor fragment while the IC L1210 and IC P388 systems utilize IC inoculated ascites tumor fluid. All three use IP drug treatment however. […] Cures (survivors from the group of six mice on the last day of the experiment) are indicated.

lymphoid leukemia L1210 [4] = details: for survivors, IP L1210: parentheses, per 6
ependymoblastoma = format: in vivo, murine; details: for OD: QD1-5, Table X; for ILS: QD1-5, at OD
Text: ^c Ic tumor implantation, ip QD15 treatment schedule.
as §1

[5] = test system: lymphocytic leukemia P388; format: in vivo, murine; details: for OD: QD1-9, Table IX; for ILS: QD1-9, at OD
[6] = Day 1 only (1 injection), Table VIII
[7] = QD1-9 (9 injections), Table VIII
[8] = QD1-9, day 30, at OD, Table VIII

O=C1C(Cl)=C(N2CC2)C(=O)C(Cl)=C1N1CC1 [Compound 4, 2,5-dichloro-3,6-diaziridinyl-1,4-benzoquinone]
activity in L1210 (lymphoid leukemia L1210 [1]): inactive

COC1=C(Br)C(=O)C(OC)=C(Br)C1=O [Compound 14, 2,5-dibromo-3,6-dimethoxy-1,4-benzoquinone]
activity in L1210 (lymphoid leukemia L1210 [1]): inactive

NC1=C(Cl)C(=O)C(N)=C(Cl)C1=O [Compound 19]
activity in L1210 (lymphoid leukemia L1210 [1]): inactive

CC(=O)NC1=C(Cl)C(=O)C(NC(C)=O)=C(Cl)C1=O [Compound 20, 2,5-dichloro-3,5-acetylamino-1,4-benzoquinone]
activity in L1210 (lymphoid leukemia L1210 [1]): inactive

CC(=O)NC1=C(N2CC2)C(=O)C(NC(C)=O)=C(N2CC2)C1=O [Compound 27, reference compound]
activity in L1210 (lymphoid leukemia L1210 [1]): intraperitoneal (IP) leukemia L1210 activity

COC1=C(N2CC2)C(=O)C(OC)=C(N2CC2)C1=O [Compound 28, reference compound]
activity in L1210 (lymphoid leukemia L1210 [1]): intraperitoneal (IP) leukemia L1210 activity

O=C1C=C(N2CC2)C(=O)C(N2CC2)=C1N1CC1 [Compound 29, Trenimon]
clinical activity [2]: Clinical activity has been reported

COC(COC(N)=O)C1=C(N2CC2)C(=O)C(C)=C(N2CC2)C1=O (stereo not shown) [Compound 30, carbazilquinone]
clinical activity [2]: Clinical activity has been reported

NC(=O)CNC1=C(N2CC2)C(=O)C(NCC(N)=O)=C(N2CC2)C1=O [Compound 40]
ILS (B16 melanocarcinoma): 37% and 22% | ILS (lymphoid leukemia L1210 [3]; QD1-9, at OD, Table X): 16% | OD (lymphoid leukemia L1210 [4]; [6]): 10.0 mg/kg/injection | ILS (lymphoid leukemia L1210 [4]; Day 1 only, at OD, Table VIII): 21% and 15% | OD (lymphoid leukemia L1210 [4]; Q4D (day 1,5,9), Table VIII): 8.0 mg/kg/injection | OD (lymphoid leukemia L1210 [4]; [7]): 10.0 mg/kg/injection | ILS (lymphoid leukemia L1210 [4]; QD1-9, at OD, Table VIII): 92% and 91% | OD (ependymoblastoma): 2.0 mg/kg/injection and 1.0 mg/kg/injection | ILS (ependymoblastoma; Table X): 64% and 50% | OD [5]: 2.0 mg/kg/injection | ILS ([5]; Table IX): 85% and 71%

CN(C)C1=C(N2CC2)C(=O)C(N(C)C)=C(N2CC2)C1=O [Compound 41, 2,5-DIAZIRIDINYL-3,6-BIS(DIMETHYLAMINO)-1,4-BENZOQUINONE]
OD (B16 melanocarcinoma): 0.2 mg/kg/injection | ILS (B16 melanocarcinoma): 16% and 12% | activity in IC L1210 (lymphoid leukemia L1210 [3]): most active; also recorded: significant activity | OD (lymphoid leukemia L1210 [3]; Q4D(1,5,9), Table X): 3.0 mg/kg/injection | ILS (lymphoid leukemia L1210 [3]; Q4D(1,5,9), at OD, Table X): 72% and 56% | OD (lymphoid leukemia L1210 [4]; [6]): 1.5 mg/kg/injection | ILS (lymphoid leukemia L1210 [4]; Day 1 only, at OD, Table VIII): 21% and 15% | OD (lymphoid leukemia L1210 [4]; Q4D (day 1,5,9), Table VIII): 3.0 mg/kg/injection | ILS (lymphoid leukemia L1210 [4]; Q4D, at OD, Table VIII): 120% and 73% | animals alive per 6 (lymphoid leukemia L1210 [4]; Q4D, day 30, at OD, Table VIII): 1 | survivors, IP L1210 (lymphoid leukemia L1210 [4]; Table XI): 1 | activity in ependymoblastoma (ependymoblastoma): among the most active materials | OD (ependymoblastoma): 1.0 mg/kg/injection and 0.5 mg/kg/injection | ILS (ependymoblastoma; Table X): 215% and 190% | animals alive per 6 (ependymoblastoma; QD1-5, day 60, at OD, Table X): 5 and 4 | survivors, EM (ependymoblastoma; Table XI, parentheses, per 6): 5 | OD [5]: 1.0 mg/kg/injection and 0.5 mg/kg/injection | ILS ([5]; Table IX): 74% and 37%

CN(CCO)C1=C(N2CC2)C(=O)C(N(C)CCO)=C(N2CC2)C1=O [Compound 42]
activity in B16 melanoma (B16 melanocarcinoma): approached minimal reproducible activity | OD (B16 melanocarcinoma): 0.8 mg/kg/injection | ILS (B16 melanocarcinoma): 47% and 31% | OD (lymphoid leukemia L1210 [3]; QD1-9, Table X): 4.0 mg/kg/injection and 2.0 mg/kg/injection | ILS (lymphoid leukemia L1210 [3]; QD1-9, at OD, Table X): 45% and 32% | ILS (lymphoid leukemia L1210 [4]; Day 1 only, at OD, Table VIII): -5% | OD (lymphoid leukemia L1210 [4]; Q4D (day 1,5,9), Table VIII): 0.4 mg/kg/injection and 0.2 mg/kg/injection | OD (lymphoid leukemia L1210 [4]; [7]): 1.5 mg/kg/injection | ILS (lymphoid leukemia L1210 [4]; QD1-9, at OD, Table VIII): 114% and 111% | animals alive per 6 (lymphoid leukemia L1210 [4]; [8]): 1 | survivors, IP L1210 (lymphoid leukemia L1210 [4]; Table XI): 1 | OD (ependymoblastoma): 0.4 mg/kg/injection and 0.2 mg/kg/injection | ILS (ependymoblastoma; Table X): 84% and 69% | OD [5]: 1.6 mg/kg/injection and 0.8 mg/kg/injection | ILS ([5]; Table IX): 162%

O=C1C(N2CC2)=C(N2CCCC(O)C2)C(=O)C(N2CC2)=C1N1CCCC(O)C1 (stereo not shown) [Compound 45]
activity in B16 melanoma (B16 melanocarcinoma): approached minimal reproducible activity | OD (B16 melanocarcinoma): 1.0 mg/kg/injection | ILS (B16 melanocarcinoma): 40% and 37% | OD (lymphoid leukemia L1210 [3]; Q4D(1,5,9), Table X): 8.0 mg/kg/injection and 6.0 mg/kg/injection | OD (lymphoid leukemia L1210 [4]; Q4D (day 1,5,9), Table VIII): 6.0 mg/kg/injection and 4.0 mg/kg/injection | ILS (lymphoid leukemia L1210 [4]; Q4D, at OD, Table VIII): 104% and 84% | animals alive per 6 (lymphoid leukemia L1210 [4]; Q4D, day 30, at OD, Table VIII): 2 | OD (lymphoid leukemia L1210 [4]; [7]): 3.0 mg/kg/injection | ILS (lymphoid leukemia L1210 [4]; QD1-9, at OD, Table VIII): 59% and 44% | ILS (ependymoblastoma; Table X): 64% and 48% | OD [5]: 1.0 mg/kg/injection | ILS ([5]; Table IX): 95% and 78%

O=C1C(N2CCN(CCO)CC2)=C(N2CC2)C(=O)C(N2CCN(CCO)CC2)=C1N1CC1 [Compound 47]
ILS (B16 melanocarcinoma): 22% | activity in IC L1210 (lymphoid leukemia L1210 [3]): marginal IC L1210 activity | OD (lymphoid leukemia L1210 [3]; QD1-9, Table X): 2.0 mg/kg/injection and 1.5 mg/kg/injection | ILS (lymphoid leukemia L1210 [3]; QD1-9, at OD, Table X): 43% and 41% | T-C (lymphoid leukemia L1210 [3]; QD1-9, day 5, at OD, Table X): -1.4 grams | activity in IP L1210 (lymphoid leukemia L1210 [4]): produced cures; also recorded: superior | OD (lymphoid leukemia L1210 [4]; [6]): 4.0 mg/kg/injection | OD (lymphoid leukemia L1210 [4]; Q4D (day 1,5,9), Table VIII): 4.0 mg/kg/injection and 2.0 mg/kg/injection | ILS (lymphoid leukemia L1210 [4]; Q4D, at OD, Table VIII): 180% | animals alive per 6 (lymphoid leukemia L1210 [4]; Q4D, day 30, at OD, Table VIII): 3 and 4 | OD (lymphoid leukemia L1210 [4]; [7]): 1.0 mg/kg/injection and 0.5 mg/kg/injection | T-C (lymphoid leukemia L1210 [4]; QD1-9, day 5, at OD, Table VIII): -1.7 grams | animals alive per 6 (lymphoid leukemia L1210 [4]; [8]): 1 | ILS (%) IP L1210 (lymphoid leukemia L1210 [4]; Table XI, outstanding activity): 180% | survivors, IP L1210 (lymphoid leukemia L1210 [4]; Table XI): 3 | OD (ependymoblastoma): 1.0 mg/kg/injection | ILS (ependymoblastoma; Table X): 75% | activity in IP P388 [5]: very active producing multiple cures | OD [5]: 0.5 mg/kg/injection and 1.0 mg/kg/injection | ILS ([5]; Table IX): 143% | animals alive per 6 ([5]; QD1-9, day 30, at OD, Table IX): 3 and 6 | survivors, P388 ([5]; Table XI, parentheses, per 6): 3

O=C1C(Cl)=C(Cl)C(=O)C(Cl)=C1Cl [chloranil, tetrachlorobenzoquinone, reference compound]
activity in L1210 (lymphoid leukemia L1210 [1]): inactive

O=C1C(N2CC2)=C(N2CC2)C(=O)C(N2CC2)=C1N1CC1 [tetraaziridinyl derivative, reference compound]
ILS (lymphoid leukemia L1210 [1]; L1210 leukemia, earlier evaluation): 39%

Reference: patent publication US4704384A, “Aziridinyl quinone antitumor agents” (priority 1981, dated 1987)
